Results from patent US5162571A, “Phenol derivatives, their production and use” (Takeda Chemical Industries, Ltd., priority 1987, dated 1992).

How the values were obtained:
[1] = test system: U-46619 (TXA2 mimic)-induced broncho-constriction; test: Inhibitory effect on U-46619 (TXA2 mimic)-induced broncho-constriction in guinea pig; assay type: in vivo; conditions: Cavia porcellus, ** p < 0.01; for inhibition in vivo at 5 mg/kg: po, 5 mg/kg p.o., 1 hour before U-46619; for inhibition in vivo at 0.31 mg/kg: iv, 0.31 mg/kg i.v., 9 minutes before U-46619
Procedure: Inhibitory effect on U-46619 (TXA2 mimic)-induced broncho-constrictionin guinea pig
Method: Eight male Hartley guinea pigs were used per one group. The guinea pig anesthetized with urethane (1.5 g/kg, i.p.) was fixed in a dorsal position, subjected to tracheotomy and connected to a respirator through a cannula. A side branch of the tracheal cannula was connected to a respirator (Harvard apparatus rodent respirator Type 680) at the rate of 70 strokes/min. and a constant volume of 3 to 5 ml.
Inflation pressure was kept constant at 10 cm H2 O.
After treatment with gallamine triethiodide (1 mg/kg, i.v.), U-46619 (10 μg/Kg) dissolved in a physiological saline solution was given through a carotid cannula and the airway resistance was measured by the overflow technique of Konzett-Rossler method (Konzett, H. and Rossler, R., Naunyn-Schmiedegerg's Arch, Exp. Path. Pharmak., 195, 71-74 (1940). A test compound was suspended in 5% gum arabic solution and was administered orally 1 hour before the treatment with U-46619.
Alternatively, a test compound was dissolved in aqueous 50% dimethylsulfoxide solution and administered interveneously in the dosage of 0.1 ml/100 g body weight 9 minutes before the treatment of U-46619.

[2] = test system: chorioallantoic membrane; test: Angiogenesis inhibitory activity, shell-less chorioallantoic membrane (CAM) assay; assay type: in vivo, chick; conditions: 6 disks tested
Procedure: Angiogenesis inhibitory activity
Method: Shell-less chorioallantoic membrane assay.
The shell-less chorioallantoic membrane (CAM) assay was carried out by the method of Taylor and Folkman [S. Taylor and J. Folkman; Nature, 297, 307 (1982)] with a slight modification. Thus, 3-day chick embryos were removed from their shells and cultured in plastic cups on hammocks of plastic wrap. Samples along with ECGS (endothelial cell growth supplements, Collaborative Research Inc.) were placed on plastic disks (polypropylene, 6 mm in diameter). After the solution had dried, the disks were placed on the CAM of 10-day embryos. Three days later, inhibition of the neovascular formation by fumagillin was observed under a stereoscope (×20, SMZ-10, Nikon), and compared to the control disk containing ECGS as a stimulant of angiogenesis without samples.

[3] = test system: lipid peroxides production in rat brain homogenates; test: Inhibitory action on lipid peroxides production in rat brain homogenates; assay type: biochemical; conditions: 10^-5 M
Procedure: Inhibitory action on lipid peroxides production in rat brain homogenates
Method: The male SD rat brain tissue was used as 5% homogenate in phosphate-buffered solution. After incubation of the homogenate for 1 hour at 37° C., the amount of lipid peroxides produced was determined by the thiobarbituric acid method according to the description of Ohkawa et al. (Analytical Biochemistry, 95: 551, 1979)
Test compounds were used as a solution of dimethylsulfoxide. The inhibitory action on lipid peroxide production was expressed as a % inhibition as compared with the amount of production in the vehicle group.

[4] = molecular target: T1, specific [^3 H] U-46619 binding to guinea pig platelet membrane (Cavia porcellus, UniProt A0A286Y4I8); test: Inhibition of specific [^3 H] U-46619 binding to guinea pig platelet membrane; conditions: [^3 H] U-46619, 25° C., 30 min; read-out: IC50 (Concentration for 50% inhibition)
T1 construct: Platelet membranes were prepared according to the following procedure; from tissue; host or cells: guinea pig platelet membranes
T1 sequence (A0A286Y4I8 1-347): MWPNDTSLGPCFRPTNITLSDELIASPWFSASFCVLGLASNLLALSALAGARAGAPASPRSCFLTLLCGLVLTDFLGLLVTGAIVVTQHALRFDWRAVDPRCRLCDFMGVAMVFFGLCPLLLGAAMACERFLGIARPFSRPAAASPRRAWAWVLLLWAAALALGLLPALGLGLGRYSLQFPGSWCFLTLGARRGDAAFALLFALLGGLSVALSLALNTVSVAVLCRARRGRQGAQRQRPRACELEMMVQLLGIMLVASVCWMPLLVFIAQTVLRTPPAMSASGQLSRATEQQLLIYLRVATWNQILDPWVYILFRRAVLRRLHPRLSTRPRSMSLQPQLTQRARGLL
Procedure: Inhibition of specific [^3 H] U-46619 binding to guinea pig platelet membrane
Method: Blood from normal guinea pig was collected into 0.315% citrate solution containing aspirin (final concentration 1 mM) and was centrifuged at 3000 r.p.m. for […]. The PRP (platelet rich plasma) was centrifuged at 4800 r.p.m for 10 min. at 4° C. Platelet membranes were prepared according to the following procedure: In order to remove the residual plasma protein, the platelet pellet was washed once with 30 ml of buffer containing 25 mM Tris-HCl/5 mM MgCl2 (pH 7.4) and recentrifuged to pellet the platelets. The platelets were then resuspended in 20 ml of the same buffer, and the cells were disrupted by sonication. The sonication was performed on ice using a Kontes Sonicator (Vineland, N.J.). The platelets were sonicated for a total of 90 sec. with a 15 sec. burst followed by a 15 sec. intermission. The sonicated mixture was centrifuged at 100,000×g for 1 hour and the membrane fraction was suspended in the same buffer. The protein concentration was adjusted to 1 mg/ml.
The binding assay was performed at 25° C. for 30 min. One ml of the resuspended membrane fraction was incubated with […] of [^3 H] U-46619. The incubation mixture was filtered through a glass fiber membrane (GF/C, whatman) to separate the membrane bound from free [^3 H] U-46619. The membranes were quickly washed twice with 5 ml of cold buffer, mixed with 4 ml of ACS scintillation fluid and counted for [^3 H] U-46619.

[5] = molecular target: T2, Thromboxane A2 (TXA2) receptor (Oryctolagus cuniculus, UniProt Q6WQI8); test: Thromboxane A2 (TXA2) receptor antagonism: inhibitory effect on contraction of rabbit aorta by TXA2-mimics; assay type: cell-based; conditions: U-44069 (10^-7 M)-induced contraction; for inhibition at 10 µM: 10^-5 M; for inhibition at 1 µM: 10^-6 M; for inhibition at 0.1 µM: 10^-7 M
T2 construct: contraction by TXA2 mimics U-44069 or U-46619
T2 sequence (Q6WQI8 1-233): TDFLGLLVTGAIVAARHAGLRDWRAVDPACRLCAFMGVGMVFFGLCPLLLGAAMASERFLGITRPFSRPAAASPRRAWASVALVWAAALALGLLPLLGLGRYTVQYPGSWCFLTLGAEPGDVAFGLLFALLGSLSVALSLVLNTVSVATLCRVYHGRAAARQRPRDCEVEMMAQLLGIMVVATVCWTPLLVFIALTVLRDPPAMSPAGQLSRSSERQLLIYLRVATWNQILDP
Procedure: Thromboxane A2 (TXA2) receptor antagonism
Inhibitory effect on contraction of rabbit aorta by thromboxan A2 (TXA2)-mimics
Method: A spiral strip of the rabbit aorta (2-3 mm wide, about 3 cm long) was suspended in Krebs-Henseleit solution under the load of 2 g. The Krebs-Henseleit solution was saturated with a mixed gas of 95%O2 -5%CO2 and warmed at 37° C. Inhibition of the contraction of the vascular strip caused by a TXA2 mimic substance U-44069^1) (10^-7 M) or U-46619^2) (3×10 ^-8 M), by pretreatment with Compound No. 13 30 minutes before was studied.
1) U-44069: (5Z, 9α, 11α, 13E, 15S)-15-hydroxy-9,11-(epoxymethano)-prosta-5,13-dienoic acid (manufacturedby The Upjohn Company in U.S.A.)
2) U-46619: (5Z, 9α, 11α, […], 15S)-15-hydroxy-11,9-(epoxymethano)-prosta-5,13-dienoic acid (manufacturedby Cayman Chemical Company)
In Table 5, "*" represents addition of U-46619.

[6] = molecular target: T3, 5-Lipoxygenase (Rattus norvegicus, UniProt P12527); test: 5-Lipoxygenase inhibitory activity (5-HETE production in RBL-1 cells); assay type: cell-based; conditions: read-out: Inhibitory effect on 5-HETE production (%)
T3 construct: RBL-1 cells (rat basophilic leukemia cells); endogenous in cells; host or cells: RBL-1 (rat basophilic leukemia cells)
T3 sequence (P12527 1-673): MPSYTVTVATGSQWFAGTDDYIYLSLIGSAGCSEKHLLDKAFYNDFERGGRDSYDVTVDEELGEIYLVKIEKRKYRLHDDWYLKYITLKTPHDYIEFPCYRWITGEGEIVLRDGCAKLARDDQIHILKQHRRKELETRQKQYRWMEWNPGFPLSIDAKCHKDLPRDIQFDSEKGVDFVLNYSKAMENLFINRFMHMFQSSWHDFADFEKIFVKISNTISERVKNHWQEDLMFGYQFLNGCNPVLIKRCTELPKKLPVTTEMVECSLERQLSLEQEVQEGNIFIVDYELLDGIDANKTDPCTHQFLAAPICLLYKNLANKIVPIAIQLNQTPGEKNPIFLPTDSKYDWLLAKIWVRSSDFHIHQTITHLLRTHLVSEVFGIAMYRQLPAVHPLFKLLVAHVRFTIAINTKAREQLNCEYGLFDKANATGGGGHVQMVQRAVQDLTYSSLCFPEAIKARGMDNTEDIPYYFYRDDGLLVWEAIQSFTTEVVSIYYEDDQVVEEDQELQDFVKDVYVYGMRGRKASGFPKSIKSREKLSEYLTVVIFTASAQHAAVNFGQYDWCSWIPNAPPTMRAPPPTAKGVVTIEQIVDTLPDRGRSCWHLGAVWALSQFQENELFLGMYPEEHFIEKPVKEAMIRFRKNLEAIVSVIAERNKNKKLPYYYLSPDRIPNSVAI
Procedure: 5-Lipoxygenase inhibitory activity
Method: 10^7 RBL-1 cells (rat basophilic leukemia cells) were suspended in 0.5 ml of MCM (mast cell medium), and test solutions (made up of 0.5 ml of MCM, 50 μg of arachidonic acid, 10 μg of A-23187 (calcium ionophore) and 1 μM, 0.01 μM and 0.001 μM as the final concentration of the phenol compound, respectively) prepared previously were added respectively to the suspension, followed by reaction at 37° C. for 20 minutes. After the conclusion of the reaction, 4 ml of ethanol and 1,4-dimethoxy-2-methyl-3-(3-methoxypropyl)naphthalene as the internal reference drug were added to the reaction solution, and the mixture was shaken thoroughly and allowed to stand at room temperature for 10 minutes. Then, it was centrifuged (2000 r.p.m.) for 10 minutes, and the supernatant fluid was separated and concentrated to dryness under reduced pressure. 0.5 ml of 60% aqueous methanol was added to the concentrate, and 100 μl of the resulting solution was taken and subjected to high-performance liquid chromatography to determine the amount of 5-HETE (5-hydroxy-eicosatetraenoic acid). Determination of 5-HETE was made through measurement of an absorption at 237 nm with a UV absorption monitor.
The 5-HETE production inhibitory effect (IE) was expressed by [formula] wherein a is a peak height or peak area corrected by the peak for the internal reference when the phenol compound is not contained; b is a peak height or peak area corrected by the peak for the internal reference when the phenol compound is contained.

[7] = test system: vasoconstriction by PGD2 (rabbit aorta); test: Inhibitory effect of vasoconstriction by PGD2; assay type: cell-based; conditions: Oryctolagus cuniculus; 10^-7 M; PGD2 (3×10^-6 M); n = 2; read-out: Inhibitory Rate (%)
Procedure: Inhibitory effect of vasoconstriction by PGD2
Method: A spiral strip of the rabbit aorta (2-3 mm wide, about 3 cm long) was suspended in Krebs-Henseleit solution under the load of 2 g. The Krebs-Henseleit solution was saturated with a mixed gas of 95% O2 -5% CO2 and warmed at 37° C. Inhibition of the contraction of the vascular strip caused by addition of PGD2 (3×10^-6 M) by pretreatment with Compound No. 13 30 minutes before was studied.

[8] = Extension of bleeding time; assay type: in vivo, rat; conditions: one hour before
Procedure: Extension of bleeding time
Method: Test compounds were administered orally to rats one hour before the experiments. The rats were anesthetized and the tail was cut at 1.5 mm from the tip. Immediately, the tail was hung down into a physiological saline warmed at 37° C. The time required from initiation to stop of bleeding (bleeding time) was measured.

SMILES | inhibition in vivo at 5 mg/kg [1] [%] | Number of disks showing angiogenesis inhibition ([2]; 4 μg) | Number of disks showing angiogenesis inhibition ([2]; 20 μg) | Inhibition (%) [3] [%] | IC50 [4] [nM] | inhibition at 10 µM [5] [%] | inhibition at 1 µM [5] [%] | inhibition at 10 µM ([6]; 10^-5 M) [%] | inhibition at 1 µM ([6]; 10^-6 M) [%] | inhibition at 0.1 µM ([6]; 10^-7 M) [%] | inhibition in vivo at 0.31 mg/kg [1] [%] | inhibition at 0.1 µM [7] [%] | inhibition at 0.1 µM [5] [%] | Bleeding time ([8]; 10 mg/kg oral, control 173 ± 23, * p < 0.05) [s] | Bleeding time ([8]; 30 mg/kg oral, control 164 ± 27, ** p < 0.01) [s]
Cc1cc(C)c(O)c(C(CCCCCC(=O)O)c2ccc(F)cc2)c1C (stereo not shown) [Compound 1, 7-(4-fluorophenyl)-7-(2-hydroxy-3,5,6-trimethylphenyl)heptanoic acid] | 55 | 3 | 6 | 92.0 | 240 | 100 | 56 |  |  |  |  |  |  |  | 
CC(C)(C)c1cc(O)c(O)c(C(CCCCCC(=O)O)c2ccccc2)c1 (stereo not shown) [Compound 56] |  |  |  | 100 |  |  |  | 93 | 93 | 66 |  |  |  |  | 
Cc1c(O)c(C(CCCCCC(=O)O)c2ccc(F)cc2)c(C)c2c1CCC2 (stereo not shown) [Compound 21] | 76 |  |  |  | 49 |  | 99 |  |  |  | 51 | 54 | 5 | 235 ± 38 | 529 ± 154
Cc1c(C)c(C)c(C(CCCCCC(=O)O)c2ccc(F)cc2)c(O)c1C (stereo not shown) [Compound 9] |  |  |  | 100 | 130 | 100 | 27 |  |  |  | 65 |  |  |  | 
Cc1c(C)c(C=O)c(C)c(C(CCCCCC(=O)O)c2ccc(F)cc2)c1O (stereo not shown) [Compound 27, 7-(4-fluorophenyl)-7-(3-formyl-6-hydroxy-2,4,5-trimethylphenyl)heptanoic acid] | 84 |  |  |  | 2.3 |  |  |  |  |  |  | 100 | 98 |  | 
